Common to all, as to test: relative viability (nuclei count vs DMSO), 5 days (fraction); higher = more cells survive
Compound in the assay “Venetoclax + Lapatinib”: CC1(C)CCC(CN2CCN(c3ccc(C(=O)NS(=O)(=O)c4ccc(NCC5CCOCC5)c([N+](=O)[O-])c4)c(Oc4cnc5[nH]ccc5c4)c3)CC2)=C(c2ccc(Cl)cc2)C1 [Venetoclax] + CS(=O)(=O)CCNCc1ccc(-c2ccc3ncnc(Nc4ccc(OCc5cccc(F)c5)c(Cl)c4)c3c2)o1 [Lapatinib] (partner 2 µM)
Put shortly:
(§1)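 Lung cancer cell lines, seeded in 1536-well plates, were treated the following day by pin tool with a single drug or with five library-drug doses (not always all listed) in √10 steps on top of a fixed anchor-drug dose. Cells were fixed and nuclei stained in one step after 5 days, and nuclei were counted. Relative viability is the nuclei count for treated wells divided by that for vehicle wells, reported as medians of duplicate plates.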

Compound in assay [1]: Cn1cnc2c(F)c(Nc3ccc(Br)cc3Cl)c(C(=O)NOCCO)cc21 [Selumetinib] + CC(=O)c1c(C)c2cnc(Nc3ccc(N4CCNCC4)cn3)nc2n(C2CCCC2)c1=O [Palbociclib] (partner 0.5 µM)
The essentials:
as §1

Compound in the assay “Selumetinib + Phenformin”: Cn1cnc2c(F)c(Nc3ccc(Br)cc3Cl)c(C(=O)NOCCO)cc21 [Selumetinib] + N=C(N)NC(=N)NCCc1ccccc1 [Phenformin] (partner 250 µM)
The essentials: as §1

Compound in the assay “Selumetinib + Luminespib”: Cn1cnc2c(F)c(Nc3ccc(Br)cc3Cl)c(C(=O)NOCCO)cc21 [Selumetinib] + CCNC(=O)c1noc(-c2cc(C(C)C)c(O)cc2O)c1-c1ccc(CN2CCOCC2)cc1 [Luminespib] (partner 0.01 µM)
Put shortly:
as §1

Experimental findings from the supplement of paper PMC10307832 are described below.

With HCC-366, the relative viability with Venetoclax + Lapatinib (first compound 0.01 µM) is 1.1; with Venetoclax + Lapatinib (first compound 0.03162 µM), 1.01; with Venetoclax + Lapatinib (first compound 0.1 µM), 0.933; in the assay with Venetoclax + Lapatinib (first compound 0.3162 µM), 1.04; with Venetoclax + Lapatinib (first compound 1 µM), 0.951; in assay [1] (first compound 0.02 µM), 0.3. Besides, the relative viability in assay [1] (first compound 0.06325 µM) amounted to 0.31; in assay [1] (first compound 0.2 µM) it was 0.256; in assay [1] (first compound 0.6325 µM) it was 0.143; in the assay with Selumetinib + Phenformin (first compound 0.02 µM) it was 0.594; in the assay with Selumetinib + Phenformin (first compound 0.06325 µM), 0.607; with Selumetinib + Phenformin (first compound 0.2 µM) it was 0.512. Also, the relative viability with Selumetinib + Phenformin (first compound 0.6325 µM) came out at 0.361.

Take HCC-78: the relative viability was found to be 0.859 in the assay with Venetoclax + Lapatinib (first compound 0.01 µM); 0.736 with Venetoclax + Lapatinib (first compound 0.03162 µM); 0.604 with Venetoclax + Lapatinib (first compound 0.1 µM); 0.935 with Venetoclax + Lapatinib (first compound 0.3162 µM); 0.662 with Venetoclax + Lapatinib (first compound 1 µM); 0.486 in assay [1] (first compound 0.02 µM). Also, the relative viability came to 0.488 in assay [1] (first compound 0.06325 µM); 0.498 in assay [1] (first compound 0.2 µM); 0.423 in assay [1] (first compound 0.6325 µM); 0.667 with Selumetinib + Phenformin (first compound 0.02 µM); 0.74 with Selumetinib + Phenformin (first compound 0.06325 µM); 0.601 with Selumetinib + Phenformin (first compound 0.2 µM). Further, in the assay with Selumetinib + Phenformin (first compound 0.6325 µM), the relative viability was 0.677.

LCLC-103H: the relative viability in assay [1] (first compound 0.02 µM) turned out to be 0.467; in assay [1] (first compound 0.06325 µM), 0.498; in assay [1] (first compound 0.2 µM), 0.469; in assay [1] (first compound 0.6325 µM), 0.439; with Selumetinib + Luminespib (first compound 0.02 µM), 0.922; with Selumetinib + Luminespib (first compound 0.06325 µM), 0.876. For the same cell line, the relative viability turned out to be 0.831 with Selumetinib + Luminespib (first compound 0.2 µM); 0.697 in the assay with Selumetinib + Luminespib (first compound 0.6325 µM); 0.329 with Selumetinib + Phenformin (first compound 0.02 µM); 0.326 in the assay with Selumetinib + Phenformin (first compound 0.06325 µM); 0.293 in the assay with Selumetinib + Phenformin (first compound 0.2 µM); 0.337 in the assay with Selumetinib + Phenformin (first compound 0.6325 µM).

As to NCI-H1563, the relative viability with Venetoclax + Lapatinib (first compound 0.01 µM) was found to be 0.691; with Venetoclax + Lapatinib (first compound 0.03162 µM) it was 1.08; in the assay with Venetoclax + Lapatinib (first compound 0.1 µM), 1.14; with Venetoclax + Lapatinib (first compound 0.3162 µM), 1.28; in the assay with Venetoclax + Lapatinib (first compound 1 µM) it was 0.953; with Selumetinib + Luminespib (first compound 0.02 µM), 0.507. The relative viability with Selumetinib + Luminespib (first compound 0.06325 µM) turned out to be 0.499; in the assay with Selumetinib + Luminespib (first compound 0.2 µM), 0.527; with Selumetinib + Luminespib (first compound 0.6325 µM), 0.52; with Selumetinib + Phenformin (first compound 0.02 µM), 0.688; with Selumetinib + Phenformin (first compound 0.06325 µM), 0.68; with Selumetinib + Phenformin (first compound 0.2 µM), 0.627. The relative viability in the assay with Selumetinib + Phenformin (first compound 0.6325 µM) stood at 0.593.

On to IA-LM, for which the relative viability with Venetoclax + Lapatinib (first compound 0.01 µM) came to 0.849; in the assay with Venetoclax + Lapatinib (first compound 0.03162 µM), 0.723; with Venetoclax + Lapatinib (first compound 0.1 µM) it was 0.646; with Venetoclax + Lapatinib (first compound 0.3162 µM) it was 0.897; in the assay with Venetoclax + Lapatinib (first compound 1 µM), 0.552.

With ChaGo-K-1, the relative viability worked out at 0.94 in assay [1] (first compound 0.02 µM); 0.966 in assay [1] (first compound 0.06325 µM); 0.895 in assay [1] (first compound 0.2 µM); 0.848 in assay [1] (first compound 0.6325 µM); 0.531 in the assay with Selumetinib + Luminespib (first compound 0.02 µM); 0.48 in the assay with Selumetinib + Luminespib (first compound 0.06325 µM). Besides, the relative viability was 0.731 in the assay with Selumetinib + Luminespib (first compound 0.2 µM); 0.568 with Selumetinib + Luminespib (first compound 0.6325 µM); 0.484 with Selumetinib + Phenformin (first compound 0.02 µM); 0.555 in the assay with Selumetinib + Phenformin (first compound 0.06325 µM); 0.465 in the assay with Selumetinib + Phenformin (first compound 0.2 µM); 0.461 in the assay with Selumetinib + Phenformin (first compound 0.6325 µM).

Consider NCI-H596, for which the relative viability was 1.09 with Venetoclax + Lapatinib (first compound 0.01 µM); 1.24 with Venetoclax + Lapatinib (first compound 0.03162 µM); 0.971 with Venetoclax + Lapatinib (first compound 0.1 µM); 1.15 with Venetoclax + Lapatinib (first compound 0.3162 µM); 1.11 with Venetoclax + Lapatinib (first compound 1 µM); 1.13 with Selumetinib + Luminespib (first compound 0.02 µM). Besides, the relative viability with Selumetinib + Luminespib (first compound 0.06325 µM) was 1.06; with Selumetinib + Luminespib (first compound 0.2 µM), 0.914; with Selumetinib + Luminespib (first compound 0.6325 µM), 0.725; with Selumetinib + Phenformin (first compound 0.02 µM), 0.894; in the assay with Selumetinib + Phenformin (first compound 0.06325 µM), 0.695; in the assay with Selumetinib + Phenformin (first compound 0.2 µM) it was 0.751. Besides, the relative viability in the assay with Selumetinib + Phenformin (first compound 0.6325 µM) was 0.564.

On to NCI-H1648, for which the relative viability is 0.307 in assay [1] (first compound 0.06325 µM), 0.237 in assay [1] (first compound 0.2 µM) and 0.296 in assay [1] (first compound 0.6325 µM).

For NCI-H1703, the relative viability with Venetoclax + Lapatinib (first compound 0.01 µM) turned out to be 0.992; with Venetoclax + Lapatinib (first compound 0.03162 µM), 1.11; with Venetoclax + Lapatinib (first compound 0.1 µM), 0.895; with Venetoclax + Lapatinib (first compound 0.3162 µM) it was 1.01; in the assay with Venetoclax + Lapatinib (first compound 1 µM), 1.03.

In the case of A549, the relative viability turned out to be 1.05 with Venetoclax + Lapatinib (first compound 0.01 µM); 0.988 with Venetoclax + Lapatinib (first compound 0.03162 µM); 1.04 in the assay with Venetoclax + Lapatinib (first compound 0.1 µM); 0.998 with Venetoclax + Lapatinib (first compound 0.3162 µM); 0.898 with Venetoclax + Lapatinib (first compound 1 µM); 0.132 with Selumetinib + Phenformin (first compound 0.02 µM). Further, the relative viability with Selumetinib + Phenformin (first compound 0.06325 µM) turned out to be 0.14; with Selumetinib + Phenformin (first compound 0.2 µM) it was 0.143; with Selumetinib + Phenformin (first compound 0.6325 µM), 0.0906.

NCI-H522: the relative viability turned out to be 0.98 in assay [1] (first compound 0.02 µM); 0.92 in assay [1] (first compound 0.06325 µM); 0.755 in assay [1] (first compound 0.2 µM); 0.793 in assay [1] (first compound 0.6325 µM); 1.1 with Selumetinib + Luminespib (first compound 0.02 µM); 1.14 with Selumetinib + Luminespib (first compound 0.06325 µM). Further, the relative viability with Selumetinib + Luminespib (first compound 0.2 µM) was determined as 0.887; in the assay with Selumetinib + Luminespib (first compound 0.6325 µM), 0.759; with Selumetinib + Phenformin (first compound 0.02 µM) it was 0.641; in the assay with Selumetinib + Phenformin (first compound 0.06325 µM) it was 0.556; with Selumetinib + Phenformin (first compound 0.2 µM), 0.635; with Selumetinib + Phenformin (first compound 0.6325 µM), 0.609.

Consider NCI-H1623, for which the relative viability with Selumetinib + Luminespib (first compound 0.02 µM) was found to be 0.41; with Selumetinib + Luminespib (first compound 0.06325 µM), 0.352; with Selumetinib + Luminespib (first compound 0.2 µM), 0.394; in the assay with Selumetinib + Luminespib (first compound 0.6325 µM), 0.41; with Selumetinib + Phenformin (first compound 0.02 µM), 0.54; with Selumetinib + Phenformin (first compound 0.06325 µM), 0.503. Besides, the relative viability with Selumetinib + Phenformin (first compound 0.2 µM) came out at 0.483; with Selumetinib + Phenformin (first compound 0.6325 µM) it was 0.487.

Regarding SW 900, the relative viability is 0.597 in assay [1] (first compound 0.02 µM); 0.461 in assay [1] (first compound 0.06325 µM); 0.446 in assay [1] (first compound 0.2 µM); 0.495 in assay [1] (first compound 0.6325 µM); 0.19 in the assay with Selumetinib + Luminespib (first compound 0.02 µM); 0.131 with Selumetinib + Luminespib (first compound 0.06325 µM). The relative viability worked out at 0.159 with Selumetinib + Luminespib (first compound 0.2 µM); 0.155 with Selumetinib + Luminespib (first compound 0.6325 µM); 0.603 with Selumetinib + Phenformin (first compound 0.02 µM); 0.573 in the assay with Selumetinib + Phenformin (first compound 0.06325 µM); 0.416 in the assay with Selumetinib + Phenformin (first compound 0.2 µM); 0.569 with Selumetinib + Phenformin (first compound 0.6325 µM).

As for EBC-1, the relative viability with Venetoclax + Lapatinib (first compound 0.01 µM) is 0.213; with Venetoclax + Lapatinib (first compound 0.03162 µM), 0.187; with Venetoclax + Lapatinib (first compound 0.1 µM) it was 0.234; in the assay with Venetoclax + Lapatinib (first compound 0.3162 µM) it was 0.206; in the assay with Venetoclax + Lapatinib (first compound 1 µM), 0.224.
